Laboratory results as given in ChEMBL document CHEMBL1145063, “Structure-based design of a macrocyclic inhibitor for peptide deformylase” (J Med Chem, 2003).
≈ marks a conversion by molar mass, not a printed value.

Legend:
Bacillus subtilis = experiment: In vitro minimal inhibitory concentration against Bacillus subtilis was determined; format: functional
Peptide deformylase [1] = biological target: T1, Peptide deformylase (Escherichia coli, UniProt Q9JN24); experiment: Binding affinity against Co(II)-substituted Escherichia coli peptide deformylase was determined
T1 sequence (Q9JN24 whole entry): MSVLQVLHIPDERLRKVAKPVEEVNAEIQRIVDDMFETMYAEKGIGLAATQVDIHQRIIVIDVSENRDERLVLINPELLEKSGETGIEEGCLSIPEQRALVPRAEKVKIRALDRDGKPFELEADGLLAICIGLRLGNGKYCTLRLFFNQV

Escherichia coli = experiment: In vitro minimal inhibitory concentration against Escherichia coli was determined; format: functional
Peptide deformylase [2] = biological target: T1, Peptide deformylase; experiment: Inhibitory concentration against peptide deformylase was determined

**Q.** How did the MIC (Bacillus subtilis) turn out when `CC(C)(C)[C@@H]1NC(=O)C(CN(O)C=O)CCCCCCCCCNC1=O` (some centres undefined) was run?
**A.** 4 µM (≈ 1.48 µg/mL)

**Q.** And the Ki (Peptide deformylase [1])?
**A.** 0.67 nM

**Q.** What about the MIC (Escherichia coli) of the same compound?
**A.** 32 µM (≈ 11.8 µg/mL)

**Q.** `CCCCC(CN(O)C=O)C(=O)N[C@H](C(=O)N(C)C)C(C)(C)C` (some centres undefined) was tested. Which IC50 (Peptide deformylase [2]) did it give?
**A.** 7 nM
